{"source": "patent US20180296630A1", "about": "“METHODS AND COMPOSITIONS FOR PREVENTING OR TREATING OPHTHALMIC CONDITIONS” (Stealth BioTherapeutics Corp, priority 2012, published 2018)", "key": {"[1]": {"test_system": "several mammalian cell types", "settings": "energy-independent manner; cited from earlier work"}, "STZ diabetic rats": {"test_system": "STZ diabetic rats", "assay": "Lens opacity (cataract) in STZ rat model", "assay_type": "in vivo, Sprague-Dawley rat", "settings": "10 mg (Table 11: 10 mg/kg s.c.)", "experimental": "(§1) A rat model of diabetes was established by combination of 6-week HFD and low dose of STZ (30 mg/kg) injection or a single high dose of STZ (65 mg/kg) in SD rats. See generally, K. Srinivasan, B. Viswanad, Lydia Asrat, C. L. Kaul and P. Ramarao, Combination of high-fat diet-fed and low-dose streptozotocin-treated rat: A model for type 2 diabetes and pharmacological screening, Pharmacological Research, 52(4): 313-320, 2005. Rats of the same batch fed with normal chow (NRC) were used as a control."}, "HFD/STZ diabetic rats": {"test_system": "HFD/STZ diabetic rats", "assay": "Lens opacity (cataract) in HFD/STZ rat model", "assay_type": "in vivo, Sprague-Dawley rat", "settings": "for Percentage of opacity / Percentage of severe opacity / Turbidity degree + (mildly opaque), number in group / Turbidity degree ++ (opaque), number in group / Turbidity degree +++ (moderately opaque), number in group / Turbidity degree ++++ (severely opaque), number in group / Turbidity degree − (transparent), number in group: HFD/STZ rat model", "experimental": "as §1"}, "[2]": {"test_system": "STZ and HFD/STZ diabetic rats", "assay": "Inner blood-retinal barrier function (Evans blue extravasation) in diabetic SD rats", "assay_type": "in vivo, Sprague-Dawley rat", "settings": "compared to rats on a HFD not administered peptide", "experimental": "FIGS. 10A and 10B are charts showing the integrity of the blood-retinal barrier of normal rats (NRC), diabetic rats, and diabetic rats treated with Phe-D-Arg-Phe-Lys-NH2 (SS-20) or D-Arg-2′,6′-Dmt-Lys-Phe-NH2(SS-31), as analyzed by Evans blue extravasation. (A) diabetes induced by STZ; (B) diabetes induced by HFD/STZ.\nas §1\nThe effect of the aromatic-cationic peptides on the inner blood-retinal barrier function in the SD rat model was investigated."}}, "note": "Non-standard residues stand in square brackets, D forms with d. No end group written: not given here."}
{"substance": "2′,6′-Dmt-D-Arg-Phe-Lys-NH2", "values": [{"measurement": "penetration of the plasma membrane", "setting": "[1]", "result": "readily penetrates"}]}
{"substance": "F[dR]FK-NH2", "values": [{"measurement": "Opacity degree ++++, number in group", "setting": "STZ diabetic rats", "result": 1}, {"measurement": "Opacity degree +++, number in group", "setting": "STZ diabetic rats", "result": 0}, {"measurement": "Opacity degree ++, number in group", "setting": "STZ diabetic rats", "result": 2}, {"measurement": "Opacity degree +, number in group", "setting": "STZ diabetic rats", "result": 0}, {"measurement": "Opacity degree −, number in group", "setting": "STZ diabetic rats", "result": 2}, {"measurement": "Percentage of opacity", "setting": "STZ diabetic rats", "result": 60.0, "unit": "%"}, {"measurement": "Percentage of severe opacity", "setting": "STZ diabetic rats", "result": 20.0, "unit": "%"}, {"measurement": "cataract formation in the lenses of diabetic rats", "setting": "HFD/STZ diabetic rats; HFD/STZ and STZ models (FIGS. 6 and 7, Tables 13 and 14)", "result": "prevention or reversal of cataract formation"}, {"measurement": "Percentage of opacity", "setting": "HFD/STZ diabetic rats; 3 mg (Table 9: 3 mg/kg s.c.)", "result": 75.0, "unit": "%"}, {"measurement": "Percentage of severe opacity", "setting": "HFD/STZ diabetic rats; 3 mg (Table 9: 3 mg/kg s.c.)", "result": 25.0, "unit": "%"}, {"measurement": "Turbidity degree + (mildly opaque), number in group", "setting": "HFD/STZ diabetic rats; 3 mg (Table 9: 3 mg/kg s.c.)", "result": 1}, {"measurement": "Turbidity degree ++ (opaque), number in group", "setting": "HFD/STZ diabetic rats; 3 mg (Table 9: 3 mg/kg s.c.)", "result": 1}, {"measurement": "Turbidity degree +++ (moderately opaque), number in group", "setting": "HFD/STZ diabetic rats; 3 mg (Table 9: 3 mg/kg s.c.)", "result": 0}, {"measurement": "Turbidity degree ++++ (severely opaque), number in group", "setting": "HFD/STZ diabetic rats; 3 mg (Table 9: 3 mg/kg s.c.)", "result": 1}, {"measurement": "Turbidity degree − (transparent), number in group", "setting": "HFD/STZ diabetic rats; 3 mg (Table 9: 3 mg/kg s.c.)", "result": 1}, {"measurement": "Percentage of opacity", "setting": "HFD/STZ diabetic rats; 10 mg (Table 9: 10 mg/kg s.c.)", "result": 75.0, "unit": "%"}, {"measurement": "Percentage of severe opacity", "setting": "HFD/STZ diabetic rats; 10 mg (Table 9: 10 mg/kg s.c.)", "result": 0, "unit": "%"}, {"measurement": "Turbidity degree + (mildly opaque), number in group", "setting": "HFD/STZ diabetic rats; 10 mg (Table 9: 10 mg/kg s.c.)", "result": 2}, {"measurement": "Turbidity degree ++ (opaque), number in group", "setting": "HFD/STZ diabetic rats; 10 mg (Table 9: 10 mg/kg s.c.)", "result": 1}, {"measurement": "Turbidity degree +++ (moderately opaque), number in group", "setting": "HFD/STZ diabetic rats; 10 mg (Table 9: 10 mg/kg s.c.)", "result": 0}, {"measurement": "Turbidity degree ++++ (severely opaque), number in group", "setting": "HFD/STZ diabetic rats; 10 mg (Table 9: 10 mg/kg s.c.)", "result": 0}, {"measurement": "Turbidity degree − (transparent), number in group", "setting": "HFD/STZ diabetic rats; 10 mg (Table 9: 10 mg/kg s.c.)", "result": 1}, {"measurement": "inner blood-retinal barrier function", "setting": "[2]", "result": "improved"}]}
